Measurements from patent EP0216028A2, “Use of anthranilic-acid derivatives as anthelmintic medicaments” (HOECHST AKTIENGESELLSCHAFT, priority 1985, dated 1987).

Tests used:
[1] = test system: Leberegel (Fasciola hepatica); experiment: Chemotherapeutic test in sheep infected with liver fluke (egg count reduction / worm burden); format: in vivo; details: Tabelle 1, Wirtstier: Schaf, p.o.; for minimal effective dose: Fasciola hepatica, po, minimum curative dose, read-out: Dosis (>90% Reduktion der Wurmbürde); for Chemotherapeut. Index: quotient of Dosis tolerata maxima and Dosis curativa minima
From the text: (§1) Zur Feststellung der anthelminthischen Wirkung der Verbindungen der Formel I wurden chemotherapeutische Untersuchungen an ca. 25-30 kg schweren Schaflämmern ausgeführt, die entweder mit Metazerkarien von Fasciola hepatica oder mit Larven von Magen-Darm-Strongyliden, vornehmlich Haemonchus contortus und Trichostongylus colubriformis, oral infiziert worden waren. Nach Ablauf der Präpatenzperiode (Zeit zwischen Infektion und Geschlechtsreife der Parasiten mit beginnender Ausscheidung von Eiern oder Larven) wurde der Parasitenbefall durch Kotuntersuchungen gesichert. […] Unmittelbar danach wurde die Behandlung der Schafe (im allgemeinen 3 - 4 Tiere pro Wirkstoff, mindestens aber 2) vorgenommen. Den Tieren wurde oral oder parenteral eine Suspension von unterschiedlicher Wirkstoffmenge in jeweils 10 ml einer 1%igen Carboxymethylcellulose-Suspension appliziert. Jeweils am 7., 14. und 28. Tag nach der Behandlung wurde wiederum nach den vorstehend angegebenen Verfahren die Eizahl pro Gramm Kot ermittelt und ihre prozentuale Abnahme im Vergleich zum Ausgangswert vor der Behandlung errechnet. Mit einigen Verbindungen wurden außerdem beim Fasciola-Befall noch eine zusätzliche Prüftechnik angewandt: Nach Abschluß der Präpatenzperiode wurde bei Fasciola-positiven Schafen ein künstlicher Gallengang geschaffen, der am Ausgang der Gallenblase ein Sieb enthielt, so daß die nach der Behandlung abgetöteten Leberegel in der Gallenblase aufgefangen werden konnten. Vier bis sieben Tage nach der Behandlung wurden die so operierten und dann behandelten Schafe getötet, die abgetöteten Leberegel in der Gallenblase sowie noch eventuell in der Leber vorhandene lebende Leberegel gezählt und von der gesamten Wurmbürde der Prozentsatz der abgetöteten Parasiten berechnet.
(§2) Der chemotherapeutische Index gibt den Quotienten aus Do- sis tolerata maxima und Dosis curativa minima an.

[2] = test system: Magen-Darm-Würmer(Ostertagia, Haemonchur, Trichostrongylus, Cooperia, jeweils verschiedene Spezies); experiment: Chemotherapeutic test in sheep infected with gastrointestinal worms (egg count reduction / worm burden); format: in vivo; details: Tabelle 2, Wirtstier: Schaf; for Chemotherapeut. Index / minimal effective dose: p.o.; for Chemotherapeut. Index: quotient of Dosis tolerata maxima and Dosis curativa minima; for minimal effective dose: Trichostrongylus, po, read-out: Dosis (>90% Reduktion der Wurmbürde)
From the text: as §1, §2

Compound | minimal effective dose [1] [mg/kg] | Chemotherapeut. Index [1] | Dosis (>90% Reduktion der Wurmbürde) ([2]; result in words, route not printed (oral bzw. subkutan)) | Chemotherapeut. Index [2] | minimal effective dose [2] [mg/kg]
O=[N+]([O-])c1cc(Cl)cc(-c2cc(Cl)cc([N+](=O)[O-])c2O)c1O [Niclofolan, 5,5'-Dichlor-2-2'-dihydroxy-3,3'-dinitro-biphenyl, reference compound] | 3 | 3 | keine Wirkung |  | 
O=C(Nc1ccc(Oc2ccc(Cl)cc2)c(Cl)c1)c1cc(I)cc(I)c1O [Rafoxanide, 3'-Chlor-4'-(p-chlor-phenoxy)-3,5-dijod-salicylanilid, reference compound] | 7.5 | 6 |  | 6 | 7.5
O=C(Nc1ccc(Cl)cc1)c1cc(Cl)cc(Cl)c1NS(=O)(=O)c1ccc(Cl)cc1 [Verbindung 13, 3,5-Dichlor-2-[(4-chlor-phenylsulfonyl)-amino]-benzoesäure-(4-chlor-anilid)] | 5 | 10 |  | 5 | 10
O=C(Nc1ccc(Cl)cc1)c1cc(Cl)ccc1NS(=O)(=O)c1ccc(Br)cc1 [Verbindung 20, 5-Chlor-2-[(4-brom-phenylsulfonyl)-amino]-benzoesäure-(4-chlor-anilid)] | 2.5 | 20 |  | 5 | 10
O=C(Nc1ccc(OC(F)(F)F)cc1)c1cc(Cl)ccc1NS(=O)(=O)c1ccc(Cl)c(Cl)c1 [Verbindung 35, 5-Chlor-2-[(3,4-dichlorphenylsulfonyl)-amino]-benzoesäure-(4-trifluormethoxy-anilid)] | 2.5 | 20 |  | 5 | 10
O=C(Nc1ccc(Cl)cc1)c1cc([N+](=O)[O-])ccc1NS(=O)(=O)c1ccc(Cl)c(Cl)c1 [Verbindung 38, 2-[(3,4-Dichlor-phenylsulfönyl)-amino]-5-nitrobenzoesäure-(4-chlor-anilid)] |  |  |  | 6 | 7.5
CCN(C(=O)c1cc(Cl)ccc1N(C)S(=O)(=O)c1ccc(Cl)c(Cl)c1)c1ccc(Cl)cc1 [Verbindung 42] | 2.5 | 20 |  | 10 | 5
